Data as given in BigSolDB 2.1.

O=[N+]([O-])c1ccc(Cl)c(Cl)c1
solubility (mole fraction)
Conditions | in cyclohexane | in ethyl acetate | in isopropanol | in n-butanol | in n-heptane | in n-hexane | in n-propanol | in tetrachloromethane
278.15 K | 0.0568 | 0.249 | 0.0157 | 0.0389 | 0.0296 | 0.0293 | 0.0506 | 0.129
280.65 K | 0.0632 | 0.332 | 0.0199 | 0.0443 | 0.0326 | 0.0363 | 0.0519 | 0.182
283.15 K | 0.0703 | 0.405 | 0.0221 | 0.0486 | 0.0424 | 0.0425 | 0.0537 | 0.244
285.65 K | 0.0774 | 0.463 | 0.0272 | 0.0542 | 0.0451 | 0.0476 | 0.0582 | 0.302
288.15 K | 0.0865 | 0.541 | 0.0318 | 0.0593 | 0.0505 | 0.0518 | 0.0634 | 0.362
290.65 K | 0.111 | 0.602 | 0.036 | 0.0665 | 0.0564 | 0.0572 | 0.0724 | 0.435
293.15 K | 0.154 | 0.668 | 0.0439 | 0.0735 | 0.063 | 0.0634 | 0.0819 | 0.511
295.65 K | 0.25 | 0.719 | 0.0615 | 0.0819 | 0.0662 | 0.0699 | 0.0935 | 0.572
298.15 K | 0.343 | 0.778 | 0.0783 | 0.0999 | 0.0729 | 0.0824 | 0.115 | 0.644
300.65 K | 0.511 | 0.822 | 0.0981 | 0.118 | 0.0908 | 0.115 | 0.139 | 0.722
303.15 K | 0.751 | 0.866 | 0.124 | 0.136 | 0.132 | 0.173 | 0.173 | 0.792

O=[N+]([O-])c1cccc(Cl)c1Cl
solubility (mole fraction)
Conditions | in cyclohexane | in ethyl acetate | in isopropanol | in n-butanol | in n-heptane | in n-hexane | in n-propanol | in tetrachloromethane
278.15 K | 0.0137 | 0.212 | 0.00992 | 0.0254 | 0.00633 | 0.00535 | 0.0222 | 0.0619
280.65 K | 0.0156 | 0.269 | 0.0116 | 0.0331 | 0.00962 | 0.00888 | 0.0247 | 0.0811
283.15 K | 0.0184 | 0.331 | 0.0148 | 0.0401 | 0.0128 | 0.0112 | 0.0275 | 0.097
285.65 K | 0.0199 | 0.388 | 0.0169 | 0.0453 | 0.0146 | 0.0134 | 0.0295 | 0.11
288.15 K | 0.0212 | 0.435 | 0.0199 | 0.0501 | 0.017 | 0.015 | 0.0318 | 0.12
290.65 K | 0.0266 | 0.486 | 0.0243 | 0.0527 | 0.0212 | 0.0172 | 0.035 | 0.13
293.15 K | 0.0317 | 0.521 | 0.0286 | 0.0563 | 0.0251 | 0.0214 | 0.0387 | 0.15
295.65 K | 0.0377 | 0.569 | 0.0336 | 0.0589 | 0.0276 | 0.0231 | 0.0421 | 0.194
298.15 K | 0.0421 | 0.592 | 0.0394 | 0.0614 | 0.0322 | 0.0245 | 0.0456 | 0.241
300.65 K | 0.0474 | 0.645 | 0.0452 | 0.0645 | 0.0345 | 0.0277 | 0.0511 | 0.312
303.15 K | 0.0549 | 0.682 | 0.05 | 0.0679 | 0.038 | 0.031 | 0.0575 | 0.38
